Results as given in patent US7867492B2, “Compounds for hedgehog pathway blockade in proliferative disorders, including hematopoietic malignancies” (The John Hopkins University, priority 2007, dated 2011).

How the values were obtained:
Hh pathway [1] = type: cell-based
K-ras pathway = type: cell-based
[2] = test system: medulloblastoma from Ptch+/−p53−/− mice; assay: Hh activity-induced medulloblastoma allografts in athymic nude mice; type: in vivo; details: daily intraperitoneal injection
Procedure: FIG. 7 is a pictorial and a graphical diagram showing that ATO inhibits growth of Hh activity-induced medulloblastoma allografts in nude mice. Primary medulloblastoma from Ptch+/−p53−/− mice were dissected and injected into athymic nude mice. The mice were injected daily with either control PBS or 3 different doses of ATO intraperitoneally.
The activity of ATO was then tested in vivo in a well-established model of a tumor that is dependent on Hh pathway activity for growth. In this model, primary medulloblastoma cells from Ptch+/−p53−/− mice were dissected and injected into athymic nude mice. The mice were then injected daily with either control PBS or 3 different doses of ATO intra-peritoneally.

Wnt pathway = assay: Wnt reporter (7×TCF/LEF-luciferase) in 3T3 cells; type: cell-based; details: increasing concentrations, presence or absence of Wnt3a-conditioned medium
Excerpt: 3T3 cells were transfected with a Wnt reporter (7×TCF/LEF-luciferase) and treated with increasing concentrations of ATO in the presence or absence of Wnt3a-conditioned medium.
To further assess the specificity of the arsenic effect on Hedgehog pathway signaling, 3T3 cells were transfected with a Wnt reporter (7×TCF/LEF-luciferase) and treated with increasing concentrations of ATO in the presence or absence of Wnt3a-conditioned medium.

Hh pathway [3] = assay: ATO combined with cyclopamine, 8×Gli-luciferase reporter in 3T3 cells; type: cell-based; details: cyclopamine at fixed concentrations of […] and 0.125 μM, presence of ShhN
Gli = assay: Hh reporter in 3T3 cells cotransfected with SmoA1, Gli2 or Gli1; type: cell-based; details: presence or absence of ShhN

Row | Molecule | Hh signaling (reporter) (Hh pathway [1]) | K-ras pathway activity (SRE-luciferase reporter) (K-ras pathway) | Tumor allograft growth ([2]; 3 different doses, athymic nude mice) | Tumor allograft growth at the highest concentration tested ([2]; highest concentration tested) | Wnt pathway activity (7×TCF/LEF-luciferase reporter) (Wnt pathway) | Effect of ATO on Hh pathway when combined with cyclopamine (Hh pathway [3]) | Hh pathway activity (8×Gli-luciferase reporter) (Hh pathway [1]; NIH3T3 cells, increasing concentrations, presence or absence of ShhN-conditioned medium) | Hh reporter activity induced by SmoA1, Gli2 or Gli1 over-expression (Gli)
1 | O=[As][O-].[Na+] [NaAsO2] | inhibits Hh signaling | did not inhibit, and in fact stimulated the K-ras pathway | – | – | – | – | – | –
2 | arsenic trioxide [ATO] | – | – | suppressed tumor allograft growth in a concentration dependent manner | complete growth suppression | does not inhibit the Wnt pathway | significantly improved effect of ATO at lower concentrations | inhibits Hh pathway in a dose-dependent manner | dramatically inhibited reporter activity
